Results on 20 molecules are retold here after patent US11919901B2 (Syndax Pharmaceuticals, Inc., priority 2021, dated 2024).

Where only a bound is given, the exact number is not on record here.

The test system of this assay is MV4-11 cells. The assay can be described thus: Cell proliferation assay MV4;11 (CellTiter-Glo, 72 hours). It is filed as cell-based. The conditions noted are these: Homo sapiens; MV4;11 leukemia cell line, 72 hours; read-out: MV4; 11 IC50. The procedure, abridged: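 MV4-11 cells (MLL1-AF4 fusion) exposed 72 h at 37 °C to 8 compound concentrations, final 0.632–2000 nM. Viability by CellTiter-Glo luminescence as % of vehicle RLU; % max inhibition = 100 − viability at top concentration.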

Take `CC(C)N(C(=O)c1cc(F)ccc1Oc1cncnc1N1CC2(CCN(C[C@@H]3CC[C@@H](NS(=O)(=O)N(C)C)CO3)CC2)C1)C1CC(F)(F)C1` [Example 113, N-(3,3-Difluorocyclobutyl)-2-((4-(7-(((2S,5R)-5-((N,N-dimethylsulfamoyl)amino)tetrahydro-2H-pyran-2-yl)methyl)-2,7-diazaspiro[3.5]nonan-2-yl)pyrimidin-5-yl)oxy)-5-fluoro-N-isopropylbenzamide]: the IC50 was less than 100 nM. In the case of `CCN(CC)S(=O)(=O)N[C@@H]1CC[C@@H](CN2CCC3(CC2)CN(c2ncncc2Oc2ccc(F)cc2C(=O)N(C(C)C)C2CC(F)(F)C2)C3)OC1` [Example 114, 2-((4-(7-(((2S,5R)-5-((N,N-Diethylsulfamoyl)amino)tetrahydro-2H-pyran-2-yl)methyl)-2,7-diazaspiro[3.5]nonan-2-yl)pyrimidin-5-yl)oxy)-N-(3,3-difluorocyclobutyl)-5-fluoro-N-isopropylbenzamide], the IC50 is less than 100 nM. `CC(C)N(C(=O)c1cc(F)ccc1Oc1cncnc1N1CC2(CCN(C[C@@H]3CC[C@@H](NS(=O)(=O)C4COC4)CO3)CC2)C1)C1CC(F)(F)C1` [Example 115, N-(3,3-Difluorocyclobutyl)-5-fluoro-N-isopropyl-2-((4-(7-(((2S,5R)-5-(oxetane-3-sulfonamido)tetrahydro-2H-pyran-2-yl)methyl)-2,7-diazaspiro[3.5]nonan-2-yl)pyrimidin-5-yl)oxy)benzamide]: the IC50 was less than 100 nM. To `CC(C)N(C(=O)c1cc(F)ccc1Oc1cncnc1N1CC2(CCN(C[C@@H]3CC[C@@H](NS(=O)(=O)N4CCOCC4)CO3)CC2)C1)C1CC(F)(F)C1` [Example 116, N-(3,3-Difluorocyclobutyl)-5-fluoro-N-isopropyl-2-((4-(7-(((2S,5R)-5-(morpholine-4-sulfonamido)tetrahydro-2H-pyran-2-yl)methyl)-2,7-diazaspiro[3.5]nonan-2-yl)pyrimidin-5-yl)oxy)benzamide] belongs less than 100 nM; to `CC(C)N(C(=O)c1cc(F)ccc1Oc1cncnc1N1CC2(CCN(C[C@@H]3CC[C@@H](NS(N)(=O)=O)CO3)CC2)C1)C1CC(F)(F)C1` [Example 117, N-(3,3-Difluorocyclobutyl)-5-fluoro-N-isopropyl-2-((4-(7-(((2S,5R)-5-(sulfamoylamino)tetrahydro-2H-pyran-2-yl)methyl)-2,7-diazaspiro[3.5]nonan-2-yl)pyrimidin-5-yl)oxy)benzamide], less than 100 nM. To `CC(C)N(C(=O)c1cc(F)ccc1Oc1cncnc1N1CC2(CCN(C[C@@H]3CC[C@@H](NS(=O)(=O)N4CCC4)CO3)CC2)C1)C1CC(F)(F)C1` [Example 118, 2-((4-(7-(((2S,5R)-5-(Azetidine-1-sulfonamido)tetrahydro-2H-pyran-2-yl)methyl)-2,7-diazaspiro[3.5]nonan-2-yl)pyrimidin-5-yl)oxy)-N-(3,3-difluorocyclobutyl)-5-fluoro-N-isopropylbenzamide] belongs less than 100 nM; to `CC(C)N(C(=O)c1cc(F)ccc1Oc1cncnc1N1CC2(CCN(C[C@@H]3CC[C@@H](NS(=O)(=O)N(C)C(C)C)CO3)CC2)C1)C1CC(F)(F)C1` [Example 119, N-(3,3-Difluorocyclobutyl)-5-fluoro-N-isopropyl-2-((4-(7-(((2S,5R)-5-((N-isopropyl-N-methylsulfamoyl)amino)tetrahydro-2H-pyran-2-yl)methyl)-2,7-diazaspiro[3.5]nonan-2-yl)pyrimidin-5-yl)oxy)benzamide], less than 100 nM; to `C[C@@H]1COC[C@@H](C)N1C(=O)c1cc(F)ccc1Oc1cncnc1N1CC2(CCN(C[C@@H]3CC[C@@H](NS(=O)(=O)c4ccccc4)CO3)CC2)C1` [Example 120, N-((3R,6S)-6-((2-(5-(2-((3R,5R)-3,5-Dimethylmorpholine-4-carbonyl)-4-fluorophenoxy)pyrimidin-4-yl)-2,7-diazaspiro[3.5]nonan-7-yl)methyl)tetrahydro-2H-pyran-3-yl)benzenesulfonamide], less than 100 nM. In the case of `C[C@@H]1COC[C@@H](C)N1C(=O)c1cc(F)ccc1Oc1cncnc1N1CC2(CCN(C[C@@H]3CC[C@@H](NS(=O)(=O)N4CCC4)CO3)CC2)C1` [Example 121, N-((3R,6S)-6-((2-(5-(2-((3R,5R)-3,5-Dimethylmorpholine-4-carbonyl)-4-fluorophenoxy)pyrimidin-4-yl)-2,7-diazaspiro[3.5]nonan-7-yl)methyl)tetrahydro-2H-pyran-3-yl)azetidine-1-sulfonamide], the IC50 was less than 100 nM. Consider `Cc1nc(S(=O)(=O)N[C@@H]2CC[C@@H](CN3CCC4(CC3)CN(c3ncncc3Oc3ccc(F)cc3C(=O)N3[C@H](C)COC[C@H]3C)C4)OC2)cs1` [Example 122, N-((3R,6S)-6-((2-(5-(2-((3R,5R)-3,5-Dimethylmorpholine-4-carbonyl)-4-fluorophenoxy)pyrimidin-4-yl)-2,7-diazaspiro[3.5]nonan-7-yl)methyl)tetrahydro-2H-pyran-3-yl)-2-methylthiazole-4-sulfonamide], for which the IC50 was less than 100 nM. To `C[C@@H]1COC[C@@H](C)N1C(=O)c1cc(F)ccc1Oc1cncnc1N1CC2(CCN(C[C@@H]3CC[C@@H](NS(=O)(=O)N(C)C)CO3)CC2)C1` [Example 123, {[(3R,6S)-6-{[2-(5-{2-[(3R,5R)-3,5-Dimethylmorpholine-4-carbonyl]-4-fluorophenoxy}pyrimidin-4-yl)-2,7-diazaspiro[3.5]nonan-7-yl]methyl}oxan-3-yl]sulfamoyl}dimethylamine] belongs less than 100 nM. For `C[C@@H]1COC[C@@H](C)N1C(=O)c1cc(F)ccc1Oc1cncnc1N1CC2(CCN(C[C@@H]3CC[C@@H](NS(=O)(=O)N4CCCC4)CO3)CC2)C1` [Example 124, N-((3R,6S)-6-((2-(5-(2-((3R,5R)-3,5-Dimethylmorpholine-4-carbonyl)-4-fluorophenoxy)pyrimidin-4-yl)-2,7-diazaspiro[3.5]nonan-7-yl)methyl)tetrahydro-2H-pyran-3-yl)pyrrolidine-1-sulfonamide] the value was less than 100 nM. For `CCNS(=O)(=O)N[C@@H]1CC[C@@H](CN2CCC3(CC2)CN(c2ncncc2Oc2ccc(F)cc2C(=O)N2[C@H](C)COC[C@H]2C)C3)OC1` [Example 125, {[(3R,6S)-6-{[2-(5-{2-[(3R,5R)-3,5-Dimethylmorpholine-4-carbonyl]-4-fluorophenoxy}pyrimidin-4-yl)-2,7-diazaspiro[3.5]nonan-7-yl]methyl}oxan-3-yl]sulfamoyl}(ethyl)amine], the IC50 is less than 100 nM. Take `C[C@@H]1COC[C@@H](C)N1C(=O)c1cc(F)ccc1Oc1cncnc1N1CC2(CCN(C[C@@H]3CC[C@@H](NS(=O)(=O)c4cnn(C)c4)CO3)CC2)C1` [Example 126, N-((3R,6S)-6-((2-(5-(2-((3R,5R)-3,5-Dimethylmorpholine-4-carbonyl)-4-fluorophenoxy)pyrimidin-4-yl)-2,7-diazaspiro[3.5]nonan-7-yl)methyl)tetrahydro-2H-pyran-3-yl)-1-methyl-1H-pyrazole-4-sulfonamide]: the IC50 was less than 100 nM. To `C[C@@H]1COC[C@@H](C)N1C(=O)c1cc(F)ccc1Oc1cncnc1N1CC2(CCN(C[C@@H]3CC[C@@H](NS(=O)(=O)c4ccn(C)n4)CO3)CC2)C1` [Example 127, N-((3R,6S)-6-((2-(5-(2-((3R,5R)-3,5-Dimethylmorpholine-4-carbonyl)-4-fluorophenoxy)pyrimidin-4-yl)-2,7-diazaspiro[3.5]nonan-7-yl)methyl)tetrahydro-2H-pyran-3-yl)-1-methyl-1H-pyrazole-3-sulfonamide] belongs less than 100 nM; to `CCN(C)S(=O)(=O)N[C@@H]1CC[C@@H](CN2CCC3(CC2)CN(c2ncncc2Oc2ccc(F)cc2C(=O)N2[C@H](C)COC[C@H]2C)C3)OC1` [Example 128, {[(3R,6S)-6-{[2-(5-{2-[(3R,5R)-3,5-Dimethylmorpholine-4-carbonyl]-4-fluorophenoxy}pyrimidin-4-yl)-2,7-diazaspiro[3.5]nonan-7-yl]methyl}oxan-3-yl]sulfamoyl}(ethyl)methylamine], less than 100 nM; to `C[C@@H]1COC[C@@H](C)N1C(=O)c1cc(F)ccc1Oc1cncnc1N1CC2(CCN(C[C@@H]3CC[C@@H](NS(=O)(=O)N(C)C4CC4)CO3)CC2)C1` [Example 129, N-{[(3R,6S)-6-{[2-(5-{2-[(3R,5R)-3,5-Dimethylmorpholine-4-carbonyl]-4-fluorophenoxy}pyrimidin-4-yl)-2,7-diazaspiro[3.5]nonan-7-yl]methyl}oxan-3-yl]sulfamoyl}-N-methylcyclopropanamine], less than 100 nM. Take `C[C@@H]1COC[C@H](C)N1C(=O)c1cc(F)ccc1Oc1cncnc1N1CC2(CCN(C[C@@H]3CC[C@@H](NS(=O)(=O)c4ccccc4)CO3)CC2)C1` [Example 130, N-((3R,6S)-6-((2-(5-(2-((3S,5R)-3,5-Dimethylmorpholine-4-carbonyl)-4-fluorophenoxy)pyrimidin-4-yl)-2,7-diazaspiro[3.5]nonan-7-yl)methyl)tetrahydro-2H-pyran-3-yl)benzenesulfonamide]: the IC50 is less than 100 nM. For `Cc1nc(S(=O)(=O)N[C@@H]2CC[C@@H](CN3CCC4(CC3)CN(c3ncncc3Oc3ccc(F)cc3C(=O)N3[C@H](C)COC[C@@H]3C)C4)OC2)cs1` [Example 131, N-((3R,6S)-6-((2-(5-(2-((3S,5R)-3,5-Dimethylmorpholine-4-carbonyl)-4-fluorophenoxy)pyrimidin-4-yl)-2,7-diazaspiro[3.5]nonan-7-yl)methyl)tetrahydro-2H-pyran-3-yl)-2-methylthiazole-4-sulfonamide] the value was less than 100 nM; for `CC(C)N(C(=O)c1cc(F)ccc1Oc1cncnc1N1CC2(CCN(C[C@@H]3CC[C@@H](NS(=O)(=O)C(C)C)CO3)CC2)C1)[C@@H]1CCOC1` [Example 132, 5-Fluoro-N-isopropyl-2-((4-(7-(((2S,5R)-5-((1-methylethyl)sulfonamido)tetrahydro-2H-pyran-2-yl)methyl)-2,7-diazaspiro[3.5]nonan-2-yl)pyrimidin-5-yl)oxy)-N-((R)-tetrahydrofuran-3-yl)benzamide], less than 100 nM.
